Read-outs that look alike come from different tables or passages of the source.
Legend:
Format in all cases: cell-based
[1] = target: hERG channel (Homo sapiens (Human), UniProt Q12809); assay: hERG channel inhibition assay (patch-clamp, CHOhERG cells)
Procedure: The hERG K^+ channels were cloned in humans and stably expressed in a CHO (Chinese hamster ovary) cell line. CHOhERG cells were used for patch-clamp (voltage-clamp, whole-cell) experiments. Cells were stimulated by a voltage pattern to activate hERG channels and conduct IKhERG currents (rapid delayed outward rectifier potassium current of the hERG channel). […] Thereafter, the test compound was added to the preparation at increasing concentrations. For each concentration, an attempt was made to reach a steady-state effect, usually, this was achieved within 3-10 min at which time the next highest concentration was applied. The amplitude and kinetics of IKhERG are recorded in each concentration of the drug which were compared to the control values (taken as 100%). (references: Redfern W S, Carlsson L, Davis A S, Lynch W G, MacKenzie I, Palethorpe S, Siegl P K, Strang I, Sullivan A T, Wallis R, Camm A J, Hammond T G. 2003; Relationships between preclinical cardiac electrophysiology, clinical QT interval prolongation and torsade de pointes for a broad range of drugs: evidence for a provisional safety margin in drug development. Cardiovasc. Res. 58:32-45, Sanguinetti M C, Tristani-Firouzi M. 2006; hERG potassium channels and cardiac arrhythmia. Nature 440:463-469, Webster R, Leishman D, Walker D. 2002; Towards a drug concentration effect relationship for QT prolongation and torsades de pointes. Curr. Opin. Drug Discov. Devel. 5:116-26).

[2] = system: Salmonella typhimurium tester strains (TA1535, TA97, TA98, TA100, and TA102); assay: Ames microsuspension assay; details: five strains, absence and presence of S9
Procedure: The Ames microsuspension assay examines if a compound causes DNA mutations. The method was based on a modified pre-incubation version described by Kado et al (see references: B. N. Ames, J. McCann, E. Yamasaki, Mutation Res. 1975, 31, 347-364 N.Y. Kado, D. Langley, and E. Eisenstadt, Mutation Res. 1983, 121, 25-32). Five Salmonella typhimurium tester strains (TA1535, TA97, TA98, TA100, and TA102) were treated with the test compound in absence and in presence of an exogenous metabolic activation system (S9). The bacteria were pre-incubated for 1 h, the pre-incubation volume is 210 μL (100 μL of overnight culture, 100 μL of S9 mix (10% S9) or 100 μL phosphate buffer, and 10 μL test compound solution). The overnight cultures were resuspended for the test in cold phosphate buffer. The S9 mix contains potassium chloride, magnesium chloride, sodium phosphate buffered saline, NADP^+ and glucose-6-phosphate. The test tubes are incubated and shaken for 60 minutes at 37° C. 2.2 mL soft agar supplemented with L-histidine and biotin was added afterwards and the content of the tubes were mixed and poured on Vogel-Bonner minimal agar plates.
Three replicate plates for the test compound and negative control or two replicate plates for the positive controls were incubated at 37° C., upside down, for 2 days. Colonies were counted electronically using an automatic image analysis system after having inspected the background lawn for signs of toxicity.
S9 is an in vitro metabolic system which is obtained from liver homogenates by centrifuging them at 9000 g for 20 minutes. It contains CYP450 isoforms, phase-II metabolic enzymes, etc. In the Ames microsuspension assay test, S9 is used to assess mutagenicity of compounds, some of which require metabolic activation to become mutagenic.
Criteria of the Ames microsuspension assay: a positive result is defined as a reproducible, dose-related increase in the number of revertant colonies in at least one of the strains. For TA1535 and TA98, the positive threshold is a 2-fold increase over control. For TA97, TA100 and TA102, the threshold is a 1.5-fold increase.

[3] = target: human TLR7 (Homo sapiens (Human), UniProt Q9NYK1); assay: HEK-Blue-hTLR7 cells assay (SEAP reporter); details: 20 hrs, read-out: HEK-Blue-hTLR7 (EC50 (μM))
human TLR7, sequence (Q9NYK1 27-1049): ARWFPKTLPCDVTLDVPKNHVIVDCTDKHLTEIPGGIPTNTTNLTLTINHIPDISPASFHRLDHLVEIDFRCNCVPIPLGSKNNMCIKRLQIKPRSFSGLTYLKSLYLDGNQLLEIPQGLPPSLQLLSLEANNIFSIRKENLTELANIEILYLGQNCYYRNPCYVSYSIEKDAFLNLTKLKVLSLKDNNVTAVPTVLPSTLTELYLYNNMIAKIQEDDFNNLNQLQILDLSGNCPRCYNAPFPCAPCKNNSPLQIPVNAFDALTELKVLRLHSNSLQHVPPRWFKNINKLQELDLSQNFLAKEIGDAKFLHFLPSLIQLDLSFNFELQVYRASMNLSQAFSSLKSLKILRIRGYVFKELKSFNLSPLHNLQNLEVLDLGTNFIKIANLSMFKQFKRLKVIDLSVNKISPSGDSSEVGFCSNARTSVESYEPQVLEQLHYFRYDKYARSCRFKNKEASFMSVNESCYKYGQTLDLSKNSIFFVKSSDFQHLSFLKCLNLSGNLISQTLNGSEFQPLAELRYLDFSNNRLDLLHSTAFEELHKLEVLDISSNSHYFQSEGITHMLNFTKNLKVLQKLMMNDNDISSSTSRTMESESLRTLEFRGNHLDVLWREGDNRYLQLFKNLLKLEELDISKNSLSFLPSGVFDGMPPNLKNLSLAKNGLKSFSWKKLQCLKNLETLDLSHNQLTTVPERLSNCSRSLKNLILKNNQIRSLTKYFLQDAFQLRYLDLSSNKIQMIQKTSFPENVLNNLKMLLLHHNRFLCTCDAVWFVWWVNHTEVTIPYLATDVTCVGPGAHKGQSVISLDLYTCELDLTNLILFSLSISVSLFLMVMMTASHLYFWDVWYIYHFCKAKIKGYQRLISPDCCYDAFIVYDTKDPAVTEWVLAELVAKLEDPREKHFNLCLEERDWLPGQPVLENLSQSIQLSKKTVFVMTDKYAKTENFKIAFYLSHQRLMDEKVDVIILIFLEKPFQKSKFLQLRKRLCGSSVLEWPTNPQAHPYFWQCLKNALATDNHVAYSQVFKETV
Method in brief: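 HEK-Blue cells stably carrying human TLR7 and an NF-κB-driven SEAP reporter, preincubated 24 h, then exposed to serially diluted compound (1% DMSO final) for 20 h at 37 °C. Supernatant SEAP measured with QUANTI-Blue substrate, 2 h at 37 °C, absorbance read at 620–655 nm.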

[4] = human, CHO cells stably expressing hERG, read-out: hERG IC20

hERG channel, sequence (Q12809 whole entry): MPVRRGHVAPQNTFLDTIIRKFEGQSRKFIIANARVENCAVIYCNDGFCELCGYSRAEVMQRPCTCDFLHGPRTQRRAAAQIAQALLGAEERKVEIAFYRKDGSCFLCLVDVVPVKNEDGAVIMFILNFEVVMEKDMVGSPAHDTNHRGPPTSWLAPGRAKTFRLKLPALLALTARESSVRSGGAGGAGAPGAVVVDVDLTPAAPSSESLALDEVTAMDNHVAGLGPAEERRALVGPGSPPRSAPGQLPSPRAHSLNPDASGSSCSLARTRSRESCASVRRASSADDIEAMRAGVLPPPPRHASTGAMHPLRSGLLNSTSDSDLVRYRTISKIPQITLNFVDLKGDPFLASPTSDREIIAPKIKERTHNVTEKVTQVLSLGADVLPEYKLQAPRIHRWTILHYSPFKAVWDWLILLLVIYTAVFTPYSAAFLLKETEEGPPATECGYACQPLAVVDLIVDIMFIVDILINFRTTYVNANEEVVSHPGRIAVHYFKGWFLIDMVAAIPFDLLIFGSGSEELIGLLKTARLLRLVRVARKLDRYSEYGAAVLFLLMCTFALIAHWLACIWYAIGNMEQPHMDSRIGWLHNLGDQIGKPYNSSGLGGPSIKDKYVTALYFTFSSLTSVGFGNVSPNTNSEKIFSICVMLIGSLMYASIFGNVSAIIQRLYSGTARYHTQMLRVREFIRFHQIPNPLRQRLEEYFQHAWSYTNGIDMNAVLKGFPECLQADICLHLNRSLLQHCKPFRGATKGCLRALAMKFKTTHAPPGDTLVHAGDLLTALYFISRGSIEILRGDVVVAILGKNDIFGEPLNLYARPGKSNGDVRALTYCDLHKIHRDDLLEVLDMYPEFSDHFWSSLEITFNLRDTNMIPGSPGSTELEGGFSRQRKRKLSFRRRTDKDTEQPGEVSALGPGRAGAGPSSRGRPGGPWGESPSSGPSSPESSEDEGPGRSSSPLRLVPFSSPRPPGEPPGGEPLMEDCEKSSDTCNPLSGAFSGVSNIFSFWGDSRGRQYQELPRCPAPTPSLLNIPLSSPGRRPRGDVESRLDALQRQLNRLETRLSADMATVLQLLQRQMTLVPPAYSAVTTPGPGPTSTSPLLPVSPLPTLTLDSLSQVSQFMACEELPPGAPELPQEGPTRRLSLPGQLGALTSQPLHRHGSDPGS

| SMILES | Safety ratio (hERG IC20/EC50) [1] | IC20 ([1]; read-out: hERG IC20) [µM] | Ames result [2] | EC50 [3] [µM] | IC20 [1, 4] [µM] | IC50 ([1]; read-out: hERG IC50) [µM] | IC50 [1] [µM] | IC20 ([1]; human) [µM] |
| --- | --- | --- | --- | --- | --- | --- | --- | --- |
| CCCS(=N)(=O)c1nc(N)c2[nH]c(=O)n(Cc3ccccc3)c2n1 (single isomer, unassigned) [Example 4-A, 6-Amino-9-benzyl-2-(propylsulfonimidoyl)-7H-purin-8-one] | >149 | > 10 | negative | 0.067 | – | – | – | – |
| CCCS(=N)(=O)c1nc(N)c2[nH]c(=O)n(Cc3ccccc3)c2n1 (single isomer, unassigned) [Example 4-B, 6-Amino-9-benzyl-2-(propylsulfonimidoyl)-7H-purin-8-one] | >116 | > 10 | negative | – | – | – | – | – |
| CCCS(=N)(=O)c1nc(N)c2[nH]c(=O)n(Cc3ccc(C)cc3)c2n1 (single isomer, unassigned) [Example 29-A, 6-Amino-2-(propylsulfonimidoyl)-9-(p-tolylmethyl)-7H-purin-8-one] | >526 | – | negative | – | – | – | – | – |
| CCS(=N)(=O)c1nc(N)c2[nH]c(=O)n(Cc3ccc(Cl)cc3)c2n1 (single isomer, unassigned) [Example 70-A, 6-Amino-9-[(4-chlorophenyl)methyl]-2-(ethylsulfonimidoyl)-7H-purin-8-one] | – | – | negative | – | – | – | – | – |
| CCS(=N)(=O)c1nc(N)c2[nH]c(=O)n(Cc3ccc(Cl)cc3)c2n1 (single isomer, unassigned) [Example 70-B, 6-Amino-9-[(4-chlorophenyl)methyl]-2-(ethylsulfonimidoyl)-7H-purin-8-one] | – | – | negative | – | – | – | – | – |
| CCS(=N)(=O)c1nc(N)c2[nH]c(=O)n(Cc3ccc(C)cc3)c2n1 (single isomer, unassigned) [Example 71-A, 6-Amino-2-(ethylsulfonimidoyl)-9-(p-tolylmethyl)-7H-purin-8-one] | >75 | – | negative | – | – | – | – | – |
| CCCS(=N)(=O)c1nc(N)c2[nH]c(=O)n(Cc3ccccc3)c2n1 (stereo not shown) [Example 4, 6-Amino-9-benzyl-2-(propylsulfonimidoyl)-7H-purin-8-one] | >154 | – | negative | 0.065 | > 10 | > 20 | – | – |
| CCCS(=N)(=O)c1nc(N)c2[nH]c(=O)n(Cc3ccc(Cl)cc3)c2n1 (stereo not shown) [Example 9, 6-Amino-9-[(4-chlorophenyl)methyl]-2-(propylsulfonimidoyl)-7H-purin-8-one] | >833 | – | negative | 0.012 | > 10 | > 20 | – | – |
| CCCS(=N)(=O)c1nc(N)c2[nH]c(=O)n(Cc3ccc(F)c(F)c3)c2n1 (stereo not shown) [Example 27, 6-Amino-9-(3,4-difluorophenylmethyl)-2-(propylsulfonimidoyl)-7H-purin-8-one] | >278 | – | negative | 0.036 | > 10 | > 20 | – | – |
| CCCS(=N)(=O)c1nc(N)c2[nH]c(=O)n(Cc3ccc(C)nc3)c2n1 (stereo not shown) [Example 34, 6-Amino-9-[(6-methyl-3-pyridyl)methyl]-2-(propylsulfonimidoyl)-7H-purin-8-one] | – | – | negative | 0.03 | – | – | > 20 | > 10 |
| CCCS(=N)(=O)c1nc(N)c2[nH]c(=O)n(Cc3ccc(C(=O)O)cc3)c2n1 (stereo not shown) [Example 39, 4-[[6-Amino-8-oxo-2-(propylsulfonimidoyl)-7H-purin-9-yl]methyl]benzoic acid] | >59 | – | negative | 0.17 | > 10 | > 20 | – | – |

From patent publication US9708325B2, “Sulfonimidoylpurinone compounds and derivatives for the treatment and prophylaxis of virus infection” (Hoffmann-La Roche Inc., priority 2015, dated 2017)
